Results on three compounds are retold here after US20230069749A1, “USE OF POZIOTINIB FOR THE TREATMENT OF CANCERS WITH NRG1 FUSIONS” (Board of Regents, The University of Texas System, priority 2020, published 2023).

pIC50: −log10 of the molar value.

The subject of this test is NRG1-DOC4 fusion breast cancer cell line, MDA175-VII. Briefly: Cell viability of MDA175-VII cells by Cell Titer Glo assay. In kind it is cell-based. The note with it: 72 hours; for IC50 values: HER2 targeting antibody alone. As for the experimental part: The cell viability of NRG1-DOC4 fusion breast cancer cell line, MDA175-VII, was tested with treatment of poziotinib with and without antibodies and antibody drug conjugates (ADCs) targeting HER2 and HER2/HER3 dimerization. Cell viability was determined by the Cell Titer Glo assay.
(Cellular ATP, detected with luciferase, serves as a proxy for viable cell number.)

By pIC50 is commonly meant the IC50 on a negative log10 scale, so that one unit is a factor of ten. The low end stands for a large IC50, the high end for a small IC50. In the case of `C=CC(=O)N1CCC(Oc2cc3c(Nc4ccc(Cl)c(Cl)c4F)ncnc3cc2OC)CC1` [poziotinib, 1-[4-[4-(3,4-dichloro-2-fluoroanilino)-7-methoxyquinazolin-6-yl]oxypiperidin-1-yl]prop-2-en-1-one], for the setting “poziotinib alone”, the pIC50 was 9.54.
T-DM1: the IC50 values amounted to 0.6345 µg/mL.
Still for that read-out and setting: the value for “pertuzumab: recombinant, humanized monoclonal antibody that inhibits dimerization of HER2” was 0.0537 µg/mL.
